From ChEMBL document CHEMBL1201862, “PubChem BioAssay data set” (2004)
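Growth conditions: 96-well plates. Treatment: test compound, 48 hours, 5 concentrations. Analysis: linear interpolation between bracketing concentrations; unreached endpoints set to highest concentration. Abbreviation: GI50, concentration required for 50% inhibition of growth.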 The source made the active and inactive calls. Cut-off read from the data, not from the text of the source: active = GI50 up to about 1.1 µM and inactive = higher.

Experiments:
Test in all cases: DTP human tumour cell line panel, 48 h
786-0 = test system: 786-0
A549 = test system: A549
BT-549 = test system: BT-549
CAKI-1 = test system: CAKI-1
CCRF-CEM = test system: CCRF-CEM
Hs-578T = test system: Hs-578T
IGROV-1 = test system: IGROV-1
KM12 = test system: KM12
NCI-H226 = test system: NCI-H226
NCI-H23 = test system: NCI-H23
NCI/ADR-RES = test system: NCI/ADR-RES
OVCAR-4 = test system: OVCAR-4
RPMI-8226 = test system: RPMI-8226
SF-268 = test system: SF-268
SNB-75 = test system: SNB-75
SR = test system: SR
UACC-257 = test system: UACC-257
UACC-62 = test system: UACC-62
UO-31 = test system: UO-31
HOP-92 = test system: HOP-92

For CCCn1c(SC)nc(COC(=O)NC)c1COC(=O)NC, the GI50 (786-0) was > 100 µM (inactive), the GI50 (A549) was > 100 µM (inactive) and the GI50 (BT-549) was > 100 µM (inactive). For the same compound, the GI50 (CAKI-1) was > 100 µM (inactive), the GI50 (CCRF-CEM) was > 100 µM (inactive) and the GI50 (Hs-578T) was > 100 µM (inactive). For the same compound, the GI50 (IGROV-1) was > 100 µM (inactive), the GI50 (KM12) was > 100 µM (inactive) and the GI50 (NCI-H226) was > 100 µM (inactive). The GI50 (NCI-H23) was > 100 µM (inactive), the GI50 (NCI/ADR-RES) was > 100 µM (inactive) and the GI50 (OVCAR-4) was > 100 µM (inactive). The GI50 (RPMI-8226) was > 100 µM (inactive), the GI50 (SF-268) was > 100 µM (inactive) and the GI50 (SNB-75) was > 100 µM (inactive). The GI50 (SR) was > 100 µM (inactive), the GI50 (UACC-257) was > 100 µM (inactive) and the GI50 (UACC-62) was > 100 µM (inactive). For the same compound, the GI50 (UO-31) was > 100 µM (inactive).
For O=[N+]([O-])/C(C(Cl)=C(Cl)Cl)=C1\NCCS1, the GI50 (786-0) was 36.1 µM (inactive), the GI50 (A549) was > 100 µM (inactive) and the GI50 (BT-549) was 70 µM (inactive). The GI50 (CAKI-1) was 45.7 µM (inactive), the GI50 (CCRF-CEM) was 19.1 µM (inactive) and the GI50 (Hs-578T) was 27.4 µM (inactive). For the same compound, the GI50 (IGROV-1) was 62.4 µM (inactive), the GI50 (KM12) was 69.7 µM (inactive) and the GI50 (NCI-H226) was > 100 µM (inactive). For the same compound, the GI50 (NCI-H23) was 31.5 µM (inactive), the GI50 (NCI/ADR-RES) was 30.2 µM (inactive) and the GI50 (OVCAR-4) was 29.1 µM (inactive). The GI50 (RPMI-8226) was 19 µM (inactive), the GI50 (SF-268) was 39.9 µM (inactive) and the GI50 (SR) was 18.4 µM (inactive). For the same compound, the GI50 (UACC-257) was 42.2 µM (inactive), the GI50 (UACC-62) was 39.7 µM (inactive) and the GI50 (UO-31) was 41.1 µM (inactive).
With O=C(C#Cc1ccccc1)C1=Cc2ccccc2OC1 the GI50 (786-0) was 2.4 µM (inactive), the GI50 (A549) was 9.31 µM (inactive) and the GI50 (BT-549) was 2.16 µM (inactive). For the same compound, the GI50 (CAKI-1) was 1.88 µM (inactive), the GI50 (CCRF-CEM) was 0.198 µM (active) and the GI50 (Hs-578T) was 8.26 µM (inactive). The GI50 (IGROV-1) was 2.38 µM (inactive), the GI50 (KM12) was 4.25 µM (inactive) and the GI50 (NCI-H226) was 2.55 µM (inactive). For the same compound, the GI50 (NCI-H23) was 2.14 µM (inactive), the GI50 (NCI/ADR-RES) was 2.79 µM (inactive) and the GI50 (OVCAR-4) was 3.34 µM (inactive). For the same compound, the GI50 (RPMI-8226) was 2.71 µM (inactive), the GI50 (SF-268) was 5.5 µM (inactive) and the GI50 (SNB-75) was 6.14 µM (inactive). For the same compound, the GI50 (SR) was 7.23 µM (inactive), the GI50 (UACC-257) was 2.7 µM (inactive) and the GI50 (UACC-62) was 1.94 µM (inactive). For the same compound, the GI50 (UO-31) was 2.06 µM (inactive).
With CNC1=Nc2ccccc2C(=O)N2CSCC12 (stereo unspecified) the GI50 (786-0) was > 100 µM (inactive), the GI50 (A549) was > 100 µM (inactive) and the GI50 (BT-549) was > 100 µM (inactive). The GI50 (CAKI-1) was > 100 µM (inactive), the GI50 (CCRF-CEM) was > 100 µM (inactive) and the GI50 (Hs-578T) was > 100 µM (inactive). For the same compound, the GI50 (IGROV-1) was > 100 µM (inactive), the GI50 (KM12) was > 100 µM (inactive) and the GI50 (NCI-H226) was > 100 µM (inactive). The GI50 (NCI/ADR-RES) was > 100 µM (inactive), the GI50 (OVCAR-4) was > 100 µM (inactive) and the GI50 (RPMI-8226) was > 100 µM (inactive). The GI50 (SF-268) was > 100 µM (inactive), the GI50 (SNB-75) was > 100 µM (inactive) and the GI50 (SR) was > 100 µM (inactive). The GI50 (UACC-257) was > 100 µM (inactive), the GI50 (UACC-62) was > 100 µM (inactive) and the GI50 (UO-31) was > 100 µM (inactive).
CC1(C)C2CCC(N)(C2)C1O (stereo unspecified) was tested, and the GI50 (786-0) was > 100 µM (inactive), the GI50 (A549) was > 100 µM (inactive) and the GI50 (BT-549) was > 100 µM (inactive). For the same compound, the GI50 (CAKI-1) was > 100 µM (inactive), the GI50 (CCRF-CEM) was > 100 µM (inactive) and the GI50 (HOP-92) was > 100 µM (inactive). The GI50 (IGROV-1) was > 100 µM (inactive), the GI50 (KM12) was > 100 µM (inactive) and the GI50 (NCI-H226) was > 100 µM (inactive). The GI50 (NCI-H23) was > 100 µM (inactive), the GI50 (NCI/ADR-RES) was > 100 µM (inactive) and the GI50 (OVCAR-4) was > 100 µM (inactive). For the same compound, the GI50 (RPMI-8226) was > 100 µM (inactive), the GI50 (SNB-75) was > 100 µM (inactive) and the GI50 (SR) was > 100 µM (inactive). The GI50 (UACC-257) was > 100 µM (inactive), the GI50 (UACC-62) was > 100 µM (inactive) and the GI50 (UO-31) was > 100 µM (inactive).
In the case of O=c1cc(N2CCNCC2)nc2ccccn12, the GI50 (786-0) is reported as > 100 µM (inactive), the GI50 (A549) is reported as > 100 µM (inactive) and the GI50 (BT-549) is reported as > 100 µM (inactive). For the same compound, the GI50 (CAKI-1) was > 100 µM (inactive), the GI50 (CCRF-CEM) was > 100 µM (inactive) and the GI50 (HOP-92) was > 100 µM (inactive). The GI50 (Hs-578T) was > 100 µM (inactive), the GI50 (IGROV-1) was > 100 µM (inactive) and the GI50 (KM12) was > 100 µM (inactive). For the same compound, the GI50 (NCI-H226) was > 100 µM (inactive), the GI50 (NCI-H23) was > 100 µM (inactive) and the GI50 (NCI/ADR-RES) was > 100 µM (inactive). For the same compound, the GI50 (RPMI-8226) was > 100 µM (inactive), the GI50 (SF-268) was > 100 µM (inactive) and the GI50 (SNB-75) was > 100 µM (inactive). The GI50 (UACC-257) was > 100 µM (inactive), the GI50 (UACC-62) was > 100 µM (inactive) and the GI50 (UO-31) was > 100 µM (inactive).
For Cc1ccc(N/C(=C(/C(Cl)=C(Cl)Cl)[N+](=O)[O-])n2nnc3ccccc32)cc1, the GI50 (786-0) was 20.8 µM (inactive), the GI50 (A549) was 19.5 µM (inactive) and the GI50 (BT-549) was 17.7 µM (inactive). For the same compound, the GI50 (CAKI-1) was 17.7 µM (inactive), the GI50 (CCRF-CEM) was 7.06 µM (inactive) and the GI50 (Hs-578T) was 25.8 µM (inactive). For the same compound, the GI50 (KM12) was 21.2 µM (inactive), the GI50 (NCI-H226) was 18.5 µM (inactive) and the GI50 (NCI-H23) was 21.5 µM (inactive). The GI50 (NCI/ADR-RES) was 27.2 µM (inactive), the GI50 (OVCAR-4) was 18.7 µM (inactive) and the GI50 (RPMI-8226) was 20.2 µM (inactive). For the same compound, the GI50 (SF-268) was 18.8 µM (inactive), the GI50 (SNB-75) was 18.8 µM (inactive) and the GI50 (UACC-257) was 26 µM (inactive). For the same compound, the GI50 (UO-31) was 16.6 µM (inactive).
